Assay: Accelerated stability study of 2% CBD colloidal dispersion (cannabinoid profile, appearance, pH, microbial growth)
Format: physicochemical
Procedure: The solid dispersion included 20% CBD, 75% of Poloxamer 407 and 5% ascorbic acid was dissolved in distilled water to produce the homogenic, stable colloidal dispersion of cannabidiol at 2% (20 mg/mL) by weight of the formulation.

[1] = Day # 0, content in colloidal dispersion of cannabidiol at 2% (20 mg/mL)
[2] = Day # 90, stored at 100° F. (38° C.), content in colloidal dispersion of cannabidiol at 2%

Row | Structure (SMILES) | Cannabinoid profile Result [1] [mg/g] | Cannabinoid profile Result (%) [1] [%] | Cannabinoid profile Result [2] [mg/g] | Cannabinoid profile Result (%) [2] [%]
1 | C=C(C)[C@@H]1CCC(C)=C[C@H]1c1c(O)cc(CCCCC)cc1O [Cannabidiol (CBD), Cannabidiol] | 20.2 | 2.02 | 21.9 | 2.19
2 | CCCCCc1cc(O)c(C/C=C(\C)CCC=C(C)C)c(O)c1 [Cannabigerol (CBG), Cannabigerol] | 0.3 | 0.03 |  | 
3 | CCCCCc1cc(O)c2c(c1)OC(C)(C)c1ccc(C)cc1-2 [Cannabinol (CBN), Cannabinol] | 0.3 | 0.03 |  | 
